In one data set the test system is SHSY-5Y cells. The data set can be described thus: MTT growth inhibition assay in SHSY-5Y dopaminergic cells. It is filed as cell-based, human. The note with it: Homo sapiens, SH-SY5Y, read-out: SHSY-5Y IC50. Here is the method:
The 19-substituted benzoquinone ansamycins were also tested in vitro for their ability to reduce the toxicity of BQAs to SH-SY5Y cells a dopaminergic model system of relevance to neurodegenerative disease. Referring to FIG. 9, toxicity of BQAs in SH-SY-5Y cells was measured using trypan blue exclusion (panel A), MTT growth inhibition assay (panel B) and annexin V/PI staining for apoptosis (panel C). Cells in A and C were treated with BQAs (5 μM) for 16 h; cells in B were treated with BQAs for 4 h then allowed to grow in drug-free medium for 72 h. […] The combination of these two properties are likely to be important to the neuroprotective properties of the 19-substituted BQAs.
Growth inhibition assays (MTT) were conducted in human SHSY-5Y cells following a 4 hr treatment with GA or 19Me-GA. Cell were allowed to grow for 72 hrs following drug treatment. The 19-methyl substituted compounds in all series were minimally toxic (see FIG. 12 for data with geldanamycin, MTT assay, results are expressed as the mean±SD, n=3).
(Tetrazolium assays rely on reduction of a dye to a coloured formazan, in cell work by metabolically active cells.)

Data set [1] concerns MiaPaCa2 human pancreatic cancer cells. The data set can be described thus: MTT growth inhibition in MiaPaCa2 cells. It is filed as cell-based. The note with it: for IC50: Homo sapiens. Here is the method: (§1) The inventors also examined the ability of 19 BQAs to inhibit the growth of human pancreatic cancer cell lines (FIG. 16). For growth inhibition studies (MTT) cells were treated with drugs for 4 hr and then allowed to grow for 72 h. For biomarker studies MiaPaCa2 cells were treated with DMAG analogs (5 μM) for 24 hr. 19 BQAs inhibit the growth of human pancreatic cancer cell lines (FIG. 16A, 16B) and induce biomarkers of Hsp90 inhibition (FIG. 16C) using isogenic Panc-1 (NQO1 null) and Panc-1/C5 (NQO1 expressing) cell lines.

Data set [2] relates to MDA468/NQ16 breast cancer cells. The data set can be described thus: MTT growth inhibition in isogenic MDA468/NQ16 and MDA468 cells. The note with it: MDA468/NQ16, 4 hours treatment, 72 h growth, MTT. It is filed as cell-based, human. As for the experimental part: The 19-substituted benzoquinone ansamycins were also tested in vitro for their ability to inhibit growth similar to DMAG in human breast cancer cells (FIG. 10). MDA468/NQ16 breast cancer cells were treated with 19-substituted DMAG analogs for 4 hours, after which drug-containing media was removed and cells were allowed to grow for an additional 72 h. Cell viability was determined using the MTT assay.
(§2) The ability of 19-substituted BQAs to induce growth inhibition was measured by MTT in isogenic MDA468 (null NQO1) and MDA468/NQ16 (high NQO1) cells. […] Biomarkers of Hsp90 inhibition (Raf-1, AKT degradation and Hsp70 induction) were more pronounced in MDA468/NQ16 cells compared to MDA468 cells following treatment with 19-substituted DMAG analogs.

In data set [3] the test system is primary mouse hepatocytes. Nature of the data set: Hepatotoxicity in primary mouse hepatocytes (MTT). It is filed as cell-based. The note with it: 4 hr, confirmed by Trypan Blue and AST leakage. As for the experimental part: The inventors next tested the effect of 19-substitution of BQAs on hepatotoxicity in isolated hepatocyte systems. Isolated primary mouse hepatocytes were grown on coated 96-well plates and exposed to BQAs for 4 h after which their survival was determined using the MTT assay.
As described above, a major obstacle in the development of BQA as drugs has been their ability to induce hepatotoxicity in preclinical studies. […] Toxicity was measured using MTT assay and confirmed using Trypan Blue and AST leakage. The data shown in FIG. 19 were generated using MTT analysis but similar readouts were obtained using either trypan blue exclusion or leakage of AST from hepatocytes.

Data set [4] relates to BT474 human breast cancer cells. The data set can be described thus: MTT growth inhibition in BT474 cells. The note with it: BT474, 4 hr treatment, MTT 72 h later. It is filed as cell-based. Here is the method:
(§3) The inventors extended the studies with 19-substituted DMAG analogs to include the Her2^+ human breast cancer cell line BT474 (FIG. 15). Growth inhibition (FIG. 15, left panel) was measured in BT474 cells following treatment with analogs for 4 hr. Growth inhibition (MTT) was performed 72 h following drug treatments. Biomarkers of Hsp90 inhibition, Raf-1, AKT, CDK4 and Her2 degradation as well as Hsp70 induction were measured by immunoblot analysis in human BT474 breast cancer cells following treatment with 19-substituted DMAG analogs (5 μM) for 24 hr ([…], left panel).

The subject of data set [5] is Hsp90 (Raf-1, AKT, CDK4, Her2 degradation, Hsp70 induction). Nature of the data set: Immunoblot biomarkers of Hsp90 inhibition in BT474 cells. It is filed as cell-based, human. The note with it: for effects on clients chaperoned by cdc37 to Hsp90 (Raf1, Akt, cdc2, cdk4): cell line not given. Here is the method:
as §3
(In western blotting, separated proteins are transferred to a membrane and probed.)

Data set [6] concerns Hsp90 (Raf-1, AKT degradation and Hsp70 induction). The data set can be described thus: Biomarkers of Hsp90 inhibition in MDA468/NQ16 cells. It is filed as cell-based, human. The note with it: MDA468/NQ16 (high NQO1) cells. Here is the method: as §2
Data set [7] has as its system human pancreatic cancer cell lines (Panc-1, Panc-1/C5). The data set can be described thus: MTT growth inhibition in human pancreatic cancer cell lines. The note with it: for growth inhibitory activity: human pancreatic cancer cell lines, 4 hr treatment, 72 h growth, MTT (FIG. 16A). It is filed as cell-based. As for the experimental part:
as §1

The subject of the next data set is Hsp90. The data set can be described thus: Biomarkers of Hsp90 inhibition in MiaPaCa2 cells. The class given is cell-based, human. The note with it: 5 μM, 24 hr (FIG. 16C). Here is the method:
as §1

A further data set deals with p23/Hsp90 interaction. Nature of the data set: Immunoprecipitation of p23 and Hsp90 in BT474 cells. The class given is cell-based, human. The note with it: 5 μM, 24 hr. Here is the method:
Forward and reverse immunoprecipitation studies were performed in BT474 cells treated with DMAG analogs (5 μM) for 24 hr.

The test system of another data set is cdc37/Hsp90 interaction. Nature of the data set: Immunoprecipitation of cdc37 with Hsp90 in BT474 and MDA468/NQ16 cells. It is filed as cell-based, human. The note with it: 5 μM, 24 hr. Here is the method: Similarly, the association of cdc37 with hsp90 was examined in BT474 cells and MDA468/NQ16 cells by immunoprecipitation following treated with analogs (5 μM) for 24 hr. […] This finding is consistent with X ray data using purified Hsp90 showing that the larger 19-phenyl substituent causes greater conformational change in the Hsp90 structure than smaller 19-substituents (not shown). This also correlates with the differential effect of 19-phenyl and 19-methyl DMAG on clients chaperoned by cdc37 to Hsp90 which include Raf1, Akt, cdc2 and cdk4 (FIGS. 8,9,10).

The next data set concerns the target yeast Hsp90 ATPase (Saccharomyces cerevisiae, UniProt P02829). Nature of the data set: Purified recombinant yeast Hsp90 ATPase activity. It is filed as biochemical. The note with it: in the absence and presence of NQO1. As for the experimental part:
In vitro testing was performed to verify that 19-substitutions prevent GSH conjugation of benzoquinone ansamycins (BQAs). Referring to FIG. 6, reactions were performed in 50 mM potassium phosphate buffer, pH 7.4 containing 50 μM benzoquinone ansamycin in the absence (solid bars) and presence (hatched bars) of 5 mM GSH. At the indicated times (GM series, 15 min; DMAG series, 3 hr; AAG series, 16 hr) the reactions were stopped and BQA concentrations were determined by HPLC. […] The 19-substituted benzoquinone ansamycins were also tested in vitro for inhibition of Hsp90. Referring to FIG. 7, purified recombinant yeast Hsp90 ATPase activity was measured in reactions with 19-substituted BQAs in the absence and presence of NADPH quinone oxidoreductase 1 (NQO1). Results are expressed as percent of DMSO control (mean±SD n=3).
The parent BQA's inhibited purified Hsp90 much more readily in the presence of NQO1 to generate the hydroquinone and this could be blocked by the inhibitor ES936. […] This could be blocked by the NQO1 inhibitor ES936.

The next data set has as its target purified human NQO1 (Homo sapiens, UniProt P15559). Nature of the data set: Reduction by purified recombinant human NQO1 (HPLC). It is filed as biochemical. The note with it: 50 μM, NADH 200 μM, rhNQO1 5 μg, 15 min; blocked by ES936. Here is the method: To confirm bioreduction by NQO1 19Ph-GA was incubated with purified human NQO1 and analyzed by HPLC. […] Reactions with purified rhNQO1 (FIG. 14, panels A and B): 19Ph-GA (50 μM) was incubated with NADH (200 μM) in the absence and presence of purified rhNQO1 (5 μg). After 15 min reactions were stopped and analyzed by HPLC. Panel A; chromatograph overlays of 19Ph-GA, NADH (black) and 19Ph-GA, NADH and NQO1 (red). […] Panel B; chromatograph of 19Ph-GA, NADH, NQO1 and ES936. No 19Ph-GA hydroquinone formation is observed in the presence of the NQO1 inhibitor ES936.

Like-named read-outs stand apart in the source and are kept apart here.

For orientation: IC50 means the midpoint of a concentration-inhibition curve.

yeast Hsp90 ATPase, sequence (P02829 whole entry): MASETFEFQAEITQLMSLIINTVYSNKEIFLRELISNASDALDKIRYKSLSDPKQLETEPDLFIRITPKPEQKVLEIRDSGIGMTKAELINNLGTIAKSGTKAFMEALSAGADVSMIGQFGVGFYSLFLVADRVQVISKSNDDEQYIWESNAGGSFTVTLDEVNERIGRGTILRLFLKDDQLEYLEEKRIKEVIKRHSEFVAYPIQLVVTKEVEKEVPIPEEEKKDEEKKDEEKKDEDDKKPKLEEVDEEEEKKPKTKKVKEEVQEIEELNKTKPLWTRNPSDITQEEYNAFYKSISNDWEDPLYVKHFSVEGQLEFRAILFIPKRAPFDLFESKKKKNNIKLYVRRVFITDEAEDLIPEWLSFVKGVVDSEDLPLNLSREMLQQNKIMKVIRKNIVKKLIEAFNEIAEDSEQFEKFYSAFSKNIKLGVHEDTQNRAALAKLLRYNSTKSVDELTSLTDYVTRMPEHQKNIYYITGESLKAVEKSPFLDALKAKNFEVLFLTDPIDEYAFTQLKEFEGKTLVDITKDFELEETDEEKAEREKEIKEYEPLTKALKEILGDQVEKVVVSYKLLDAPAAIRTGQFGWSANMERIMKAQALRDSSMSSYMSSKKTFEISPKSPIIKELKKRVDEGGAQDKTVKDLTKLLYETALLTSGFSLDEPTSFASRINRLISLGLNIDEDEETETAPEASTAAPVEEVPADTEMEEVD
purified human NQO1, sequence (P15559 whole entry): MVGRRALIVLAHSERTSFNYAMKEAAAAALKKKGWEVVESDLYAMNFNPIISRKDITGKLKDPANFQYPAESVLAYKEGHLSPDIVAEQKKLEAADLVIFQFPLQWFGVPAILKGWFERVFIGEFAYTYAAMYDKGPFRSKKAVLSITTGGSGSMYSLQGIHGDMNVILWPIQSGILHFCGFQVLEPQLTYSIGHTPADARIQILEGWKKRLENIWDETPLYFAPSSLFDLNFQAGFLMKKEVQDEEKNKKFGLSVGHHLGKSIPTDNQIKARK

Take `CO[C@H]1/C=C\C=C(/C)C(=O)NC2=C(c3ccccc3)C(=O)C(NCCN(C)C)=C(C[C@@H](C)C[C@H](OC)[C@H](O)[C@@H](C)/C=C(\C)[C@@H]1OC(N)=O)C2=O` [19Ph-DMAG, (4E,6Z,8S,9S,10E,12S,13R,14S,16R)-19-(2-(Dimethylamino)ethylamino)-13-hydroxy-8,14-dimethoxy-4,10,12,16-tetramethyl-3,20,22-trioxo-21-phenyl-2-azabicyclo[16.3.1]docosa-1 (21),4,6,10,18-pentaen-9-yl carbamate]: in the data set with SHSY-5Y cells, the IC50 was above 20 µM. Further, the IC50 in data set [1] (MIA PaCa-2, read-out: IC50 MiaPaCa2) is 3 ± 0.6 µM. In [1] (MiaPaCa2 cells), the “potency relative to 19Me-DMAG, growth inhibition” value is on record as “greater than 10 fold”. The “potency at killing breast cancer cells relative to DMAG” value in data set [2] is “greater potency at killing breast cancer cells than DMAG”. Moreover, the hepatotoxicity entry in [3] is reported as “no toxicity was observed”. In addition, in data set [4], the growth inhibition result is “induced growth inhibition”. The “effects on clients chaperoned by cdc37 to Hsp90 (Raf1, Akt, cdc2, cdk4)” value in [5] is given as “marked”. Moreover, in data set [6], the Hsp70 induction entry is recorded as “equal Hsp70 induction compared to DMAG”; the “Raf-1 and AKT degradation” value was “more pronounced Raf-1 and AKT degradation”. In addition, the “sensitivity of Panc-1/C5 (high NQO1) relative to NQO1-null Panc-1 cells” value in data set [7] (FIG. 16B) is “more sensitive”. Further, the growth inhibitory activity result in [7] is given as “marked growth inhibitory activity”. The “induction of biomarkers of Hsp90 inhibition” value in the data set on Hsp90 is “pronounced induction of biomarkers of Hsp90 inhibition”. Besides, the “interaction of p23 and Hsp90” value in the data set with p23/Hsp90 interaction was “disrupted the interaction of p23 and Hsp90”. The “interaction of cdc37 with Hsp90” value with cdc37/Hsp90 interaction is on record as “disrupted the interaction of cdc37 with Hsp90”.

Regarding `CO[C@H]1/C=C\C=C(/C)C(=O)NC2=C(C)C(=O)C(NCCN(C)C)=C(C[C@@H](C)C[C@H](OC)[C@H](O)[C@@H](C)/C=C(\C)[C@@H]1OC(N)=O)C2=O` [19Me-DMAG, (4E,6Z,8S,9S,10E,12S,13R,14S,16R)-19-(2-(Dimethylamino)ethylamino)-13-hydroxy-8,14-dimethoxy-4,10,12,16,21-pentamethyl-3,20,22-trioxo-2-azabicyclo[16.3.1]docosa-1(21),4,6,10,18-pentaen-9-yl carbamate], the IC50 in the data set with SHSY-5Y cells (4 hr treatment, then 72 hrs growth, MTT) is above 20 µM. In addition, the IC50 in data set [1] (MIA PaCa-2, 4 hr treatment, then 72 h growth, MTT, read-out: IC50 MiaPaCa2) came to 35.8 ± 5.5 µM. Moreover, the hepatotoxicity entry in [3] was “no toxicity was observed”. Besides, the growth inhibition entry in data set [4] is on record as “no growth inhibition could be observed”. Further, in data set [5] (BT474, 5 μM, 24 hr, immunoblot), the Hsp70 induction result is reported as “robust Hsp70 response” and the “effects on Hsp90 client proteins (Raf-1, AKT, Her2, CDK4)” value is on record as “diminished effects on Hsp90 client proteins”. Besides, the “effects on clients chaperoned by cdc37 to Hsp90 (Raf1, Akt, cdc2, cdk4)” value in [5] was “had little effect”. Moreover, in data set [6], the Hsp70 induction entry was “equivalent Hsp70 response to 19-phenyl DMAG”; the “Raf-1 and AKT degradation” value was “much less pronounced effect on Hsp90 Raf1 and Akt”. For the same compound, the growth inhibitory activity entry in data set [7] was “little effect”. In addition, in the data set on Hsp90, the “induction of biomarkers of Hsp90 inhibition” value is listed as “little effect”. In addition, the “interaction of p23 and Hsp90” value with p23/Hsp90 interaction is “disrupted the interaction of p23 and Hsp90”. For the same compound, the “interaction of cdc37 with Hsp90” value with cdc37/Hsp90 interaction is “had little effect”.

In the case of `C=CCNc1c(O)cc2c(O)c1C[C@@H](C)C[C@H](OC)[C@H](O)[C@@H](C)/C=C(\C)[C@H](OC(N)=O)[C@@H](OC)/C=C\C=C(/C)C(=O)N2` [17AAG hydroquinone], the “inhibition of Hsp90 ATPase activity” value on yeast Hsp90 ATPase is reported as “inhibition of yeast Hsp90 ATPase activity”.

Regarding `COC1=C2C[C@@H](C)C[C@H](OC)[C@H](O)[C@@H](C)/C=C(\C)[C@H](OC(N)=O)[C@@H](OC)/C=C\C=C(/C)C(=O)NC(=C(c3ccccc3)C1=O)C2=O` [19Ph-GA, 19-phenylgeldanamycin], the IC50 in the data set with SHSY-5Y cells is above 10 µM. Further, the “reduction to hydroquinone by NQO1” value at purified human NQO1 is listed as “reduced to the more polar 19Ph-GA hydroquinone”.
